Measured values from article PMC10454409, “Hybrids of Sterically Hindered Phenols and Diaryl Ureas: Synthesis, Switch from Antioxidant Activity to ROS Generation and Induction of Apoptosis” (International Journal of Molecular Sciences, 2023).

How the values were obtained:
[1] = tested on: SH-SY5Y cells (neuroblastoma); experiment: MTT cytotoxicity test, SH-SY5Y; type: cell-based; details: Homo sapiens, SH-SY5Y; MTT test; 24 h incubation per text, 48 h per method
Excerpt: (§1) For the experiments, we used tumor cell cultures M-HeLa clone 11 (epithelioid carcinoma of the cervix, subline HeLa., clone M-HeLa), HuTu 80 (human duodenal adenocarcinoma) and MCF7 (human breast adenocarcinoma (pleural fluid)) from the collection of the Institute of Cytology, Russian Academy of Sciences (St. Petersburg); human liver cells (Chang liver) from the collection of the Research Institute of Virology at the Russian Academy of Medical Sciences (Moscow); and SH-SY5Y (neuroblastoma)from the Laboratory of Tumor Cell Genetics at the Scientific Research Institute of Carcinogenesis N.N. Blokhin National Medical Research Center of Oncology.
(§2) The cytotoxic effect on cells was determined using the colorimetric method of cell proliferation—the MTT test. NADP-H-dependent cellular oxidoreductase enzymes can, under certain conditions, reflect the number of viable cells. These enzymes are able to reduce the tetrazolium dye (MTT)-3-(4,5-dimethylthiazol-2-yl)-2,5-diphenyl-tetrazolium bromide to insoluble blue-violet formazan, which crystallizes inside the cell. The amount of formazan formed is proportional to the number of cells with active metabolism.
(§3) Cells were seeded on a 96-well Nunc plate at a concentration of 5 × 10^3 cells per well in a volume of 100 μL of medium and cultured in a CO2 incubator at 37 °C until a monolayer was formed. […] After 48 h, the nutrient medium was removed from the plates and 100 µL of the nutrient medium without serum with MTT at a concentration of 0.5 mg/mL was added and incubated for 4 h at 37 °C. Formazan crystals were […] 100 µL of DMSO in each well. Optical density was recorded at 540 nm on an in vitro logic microplate reader (Russia). The experiments for all compounds were repeated in triplicate.
(§4) IC50 values were estimated using the Quest Graph IC50 Calculator (AAT Bioquest, Inc., Sunnyvale, CA, USA) (Version 2022) (accessed on 25 June 2022).

[2] = tested on: MCF-7 cells (human breast adenocarcinoma); experiment: MTT cytotoxicity test, MCF-7; type: cell-based; details: Homo sapiens, MCF7, MTT test; 24 h incubation per text, 48 h per method
Method: as §2
Formazan crystals were added to 100 µL of DMSO in each well. Optical density was recorded at 540 nm on an in vitro logic microplate reader (Russia). The experiments for all compounds were repeated in triplicate.

[3] = tested on: M-HeLa cells (human cervix epithelioid carcinoma); experiment: MTT cytotoxicity test, M-HeLa; type: cell-based; details: Homo sapiens, M-HeLa; MTT test; 24 h incubation per text, 48 h per method
Excerpt: as §1, §2, §3, §4

[4] = tested on: HuTu 80 cells (human duodenal adenocarcinoma); experiment: MTT cytotoxicity test, HuTu 80; type: cell-based; details: Homo sapiens, HuTu80, read-out: IC50, HuTu 80
Excerpt: as §1, §2, §3, §4

Cyclic voltammetry = type: physicochemical; details: in CH3CN vs. Ag/AgCl; GC electrode; 0.1 V/s
Excerpt: Electrochemical measurements were taken on a BASi Epsilon EClipse electrochemical analyzer (West Lafayette, IN, USA). The program concentrated cEpsilon-ECUSB-V200 waves at the potential scan rate t = […] in a CH3CN 0.1 M solution of Bu4NBF4 at 295 K. A glassy carbon working electrode (ð = 3 mm) embedded in Teflon and a Pt wire as the counter electrode were used in the electrochemical cell. Before each measurement, the surface of the working electrode was mechanically polished. Ag/AgCl (0.01 M KCl) was used as a reference electrode. The reference electrode was connected with the cell solution by a modified Luggin capillary filled with the supporting electrolyte solution (0.1 M Bu4NBF4 in CH3CN). Thus, the reference electrode assembly had two compartments, each terminated with an ultra-fine glass frit to separate the AgCl from the analyte. The scan rate was 100 mV∙s^−1. The measurements were performed in a temperature-controlled electrochemical cell (volume from 5 mL to 20 mL) in an inert gas atmosphere (N2).
Figure 10 Cyclic voltammogram for the oxidation of SHPs. Conditions: 0.1 mM CH3CN (0.1 M Bu4NBF4); potentials vs. Ag/AgCl; work electrode: GC; scan rate: 0.1 V/s.

COP(=O)(OC)C(c1cc(C(C)(C)C)c(O)c(C(C)(C)C)c1)c1ccc(NC(=S)Nc2ccccc2)cc1NC(=S)Nc1ccccc1 (stereo not shown) [19a] showed an IC50 [1] of over 70 µM, a melting point of 207 to 208 °C and an IC50 [2] of over 70 µM. It also gave an IC50 [3] of over 70 µM and an IC50 [4] of over 70 µM.
In the case of O=C(Nc1ccccc1)Nc1ccccc1 [diphenyl urea], the Oxidation potential (Cyclic voltammetry) is reported as 1.60 V.
In the case of Cc1cc(C(C)(C)C)c(O)c(C(C)(C)C)c1 [ionol], the Oxidation potential (Cyclic voltammetry) is reported as about 1.45 V.
